The numbers were not newly measured in patent US11033509B2 (BIOGEN MA INC., priority 2016, dated 2021), which cites them from elsewhere.

Structures can show the parent of a compound that is named as a salt.

For this data set the following is noted: DMF absorbed in vivo and converted to MMF.

With `COC(=O)/C=C/C(=O)O` [MMF, monomethyl fumarate], the “half-life of MMF” value is reported as “approximately 1 hour”.
